Measured values from PubChem BioAssay AID1259333 (Broad Institute, 2017).
Activity calls are given as the source filed them. The rule behind the calls is not given here; tested in parental BL2 cells. Numbered stars: 1 amine (or outer) side, 2 acyl side, 3 side chain; on linkers, the order of the positions; unused ones are H or OH. Bridge positions count the residues as written; N and C are the ends. Square brackets hold non-standard residues; d marks the D form. Peptide text beside a SMILES is read from it. I, II: the chains in the order shown. Actinocin(9to1) = Cc1c2oc3c(C)ccc(C(=O)[*:1])c3nc-2c(C(=O)[*:2])c(N)c1=O; NMeV = CN[CH](C(=O)O)C(C)C; Sar = CNCC(=O)O

Tested on: cytotoxicity, CellTiter-Glo ATP luminescence
Experiment: loss of cell viability by ATP content – CellTiter-Glo, cytotoxicity control, dose response (AID 1259333)

| SMILES | AC50 |
| --- | --- |
| CN(C)c1ccc(C(=C2C=CC(=[N+](C)C)C=C2)c2ccc(N(C)C)cc2)cc1 | 0.492 µM |
| C[C@H](CO)N1C[C@H](C)[C@H](CN(C)S(=O)(=O)c2ccc([N+](=O)[O-])cc2)OCc2ccccc2-c2c(n(C)c3ccccc23)C1=O | > 20 µM (inactive) |
| CN(C)C(=S)SSC(=S)N(C)C | 1.36 µM |
| Cc1cc(C)nc(Sc2ncnc(N)c2[N+](=O)[O-])n1 | > 20 µM (inactive) |
| NS(=O)(=O)c1cc2c(cc1C(F)(F)F)NC(Cc1ccccc1)NS2(=O)=O (centres undefined) | > 20 µM (inactive) |
| C=C1CC(Cn2cc(Br)c(=O)[nH]c2=O)(c2ccc(-c3ccccc3)cc2)OC1=O (centres undefined) | 6.59 µM |
| COCCn1c(C)cc(C(=O)COC(=O)c2ccc(Cl)c(S(N)(=O)=O)c2)c1C | 3.01 µM |
| C[C@H]1CN([C@@H](C)CO)C(=O)c2c(c3ccccc3n2C)-c2ccccc2CO[C@@H]1CN(C)Cc1cccc(C(F)(F)F)c1 | 4.21 µM |
| NC(=O)c1c(Br)n(C2OC(CO)C(O)C2O)c2ncnc(N)c12 (centres undefined) | 3.14 µM |
| O=C(Cc1ccccc1)N1CC[C@@H]2[C@H]1c1cc(C#Cc3cccc(F)c3)ccc1N[C@@H]2CO | 10.8 µM |
| O=C(Nc1ccccc1F)N1CCCCN2[C@H](CO)[C@H](c3ccc(/C=C/c4ccccc4)cc3)[C@H]2C1 | > 20 µM (inactive) |
| COc1ccc(/C=C\c2nc(=O)c3ccccc3o2)cc1 | 6.79 µM |
| Nc1cccc2nc3ccccc3cc12 | 1.96 µM |
| Cc1cc(C)cc(N2C(=O)CC(Sc3nnnn3-c3ccccc3)C2=O)c1 (centres undefined) | 4.02 µM |
| O=C(NCCC(c1ccccc1)c1ccco1)c1cccs1 (centres undefined) | > 20 µM (inactive) |
| C[C@@H]1CN([C@H](C)CO)C(=O)c2c(c3ccccc3n2C)-c2ccccc2CO[C@H]1CN(C)C(=O)c1cc(Cl)cc(Cl)c1 | > 20 µM (inactive) |
| C[C@@H]1CN([C@@H](C)CO)C(=O)c2c(c3ccccc3n2C)-c2ccccc2CO[C@H]1CN(C)S(=O)(=O)c1ccc([N+](=O)[O-])cc1 | > 20 µM (inactive) |
| C[C@H]1CN([C@@H](C)CO)C(=O)c2c(c3ccccc3n2C)-c2ccccc2CO[C@@H]1CN(C)S(=O)(=O)c1ccc([N+](=O)[O-])cc1 | > 20 µM (inactive) |
| Cc1ccc(OCCn2cnc3c(N)ncnc32)cc1 | > 20 µM (inactive) |
| O=C1c2c(O)ccc(O)c2C(=O)c2c(NCCNCCO)ccc(NCCNCCO)c21 | 5.78 µM |

| SMILES | AC50 |
| --- | --- |
| COc1ccc(S(=O)(=O)Nc2ccc3c(c2)C(=O)N([C@H](C)CO)C[C@@H](C)[C@@H](CN(C)Cc2ccc(C(F)(F)F)cc2)OCCCC[C@H](C)O3)cc1 | > 20 µM (inactive) |
| O=[N+]([O-])c1ccc(N2CCOCC2)c2c1no[n+]2[O-] | 2.85 µM |
| CCCCCCCCCCCCCCCC[n+]1ccccc1 | 1.55 µM |
| O=C1C=CC2C3C(=O)N(c4ccccc4)C(=O)C3C1N2Cc1ccccc1 (centres undefined) | 8.98 µM |
| COC(=O)C1=C(C(=O)OC)C(C(=O)OC)C(C(=O)OC)C(C(=O)OC)(C(=O)OC)C(C(=O)OC)=C1C(=O)OC (centres undefined) | 7.79 µM |
| C[C@@H]1C[C@@H]([C@H](O)CC2CC(=O)NC(=O)C2)C(=O)[C@@H](C)C1 | > 20 µM (inactive) |
| C[C@H]1O[C@@H](O[C@H]2[C@@H](O)C[C@H](O[C@H]3[C@@H](O)C[C@H](O[C@H]4CC[C@]5(C)C6CC[C@]7(C)[C@@H](C8=CC(=O)OC8)CC[C@]7(O)C6CC[C@@H]5C4)O[C@@H]3C)O[C@@H]2C)C[C@H](O)[C@@H]1O (some centres undefined) | 2.2 µM |
| CCN(CC)CCCNc1nc2ccccc2c2[nH]c3ccc(OC)cc3c12 | 6.93 µM |
| CCN1/C(=C/c2sc(-c3ccccc3C)c[n+]2C)Sc2ccccc21 | 9.06 µM |
| CC(C(=O)O)c1ccc(N2Cc3ccccc3C2=O)cc1 (centres undefined) | 9.56 µM |
| C[C@@H]1CN([C@@H](C)CO)C(=O)Cc2cc(NC(=O)Cc3cn(C)c4ccccc34)ccc2O[C@H]1CN(C)Cc1ccc(C(F)(F)F)cc1 | > 20 µM (inactive) |
| N#Cc1c(Br)n(C2OC(CO)C(O)C2O)c2ncnc(N)c12 (centres undefined) | 4.91 µM |
| Cc1c(C(=O)c2cccc3ccccc23)c2cccc3c2n1[C@H](CN1CCOCC1)CO3 | 3.44 µM |
| CC1=CC2OC3CC4OC(=O)C=CC=CC(=O)OCCC(C)C(O)C(=O)OCC2(CC1O)C4(C)C31CO1 (centres undefined) | 7.23 µM |
| COc1ccc(CN(CCC(c2ccccc2)c2ccc(OC(C)C)cc2)C(=O)CCl)cc1OC (centres undefined) | 2.54 µM |
| Cc1ccc(S(=O)(=O)C=CS(=O)(=O)c2ccc(C)cc2)cc1 | 3.97 µM |
| CC(NCC(O)COCCC12CC3CC(CC(C3)C1)C2)c1ccccc1 (centres undefined) | 6.49 µM |
| COc1ccc(S(=O)(=O)Nc2ccc3c(c2)C(=O)N([C@H](C)CO)C[C@@H](C)[C@H](CN(C)Cc2ccc(C(F)(F)F)cc2)OCCCC[C@@H](C)O3)cc1 | 8.94 µM |
| Cc1c2oc3c(C)ccc(C(=O)OC(C)C4NC(=O)C(C(C)C)N(C)C(=O)CN(C)C(=O)C5CCCN5C(=O)C(C(C)C)NC4=O)c3nc-2c(C(=O)OC(C)C2NC(=O)C(C(C)C)N(C)C(=O)CN(C)C(=O)C3CCCN3C(=O)C(C(C)C)NC2=O)c(N)c1=O (centres undefined) (I: cyclo([Sar][NMeV]TVP) / II: cyclo([Sar][NMeV]TVP); linker I:3-II:3 via Actinocin(9to1); configuration not given here) | > 20 µM (inactive) |
| COC(=O)C1=C(C)NC(C)=C(C(=O)OCCCN2CCC(c3ccccc3)(c3ccccc3)CC2)[C@H]1c1cccc([N+](=O)[O-])c1 | > 20 µM (inactive) |

| SMILES | AC50 |
| --- | --- |
| Fc1ccccc1CNCCC(Cc1ccccc1)c1ccc2c(c1)OCO2 (centres undefined) | > 20 µM (inactive) |
| CNc1c2cccc(C)c2nc2c(C(=O)NCCN(C)C)cccc12 | 5.98 µM |
| CCCC(C)Sc1nc2c([nH]1)c(=S)n(C)c(=O)n2C (centres undefined) | 8.95 µM |
| CCCC(=O)NC1=C(Cl)C(=O)c2ccccc2C1=O | 1.12 µM |
| CCN(CC)c1ccc(C(NC(=O)C(C)C)c2ccc3cccnc3c2O)cc1 (centres undefined) | 9.15 µM |
| O=C1/C(=C/c2ccccc2)C[C@@]2(O)C3Cc4ccc(O)c5c4[C@@]2(CCN3CC2CC2)[C@H]1O5 | 2.6 µM |
| C=C1C(=O)C23C(O)C1CCC2C12CCCC(C)(COC(C)=O)C1C(O)C3(O)OC2 (centres undefined) | 5.52 µM |
| COc1ccc(-c2cc(-c3ccccc3)c(C#N)c(S(C)=O)n2)cc1 (centres undefined) | 3 µM |
| O=C1NC2c3c(I)sc(I)c3C(=O)C2O1 (centres undefined) | 6.34 µM |
| C[C@@H]1CN([C@@H](C)CO)C(=O)c2c(c3ccccc3n2C)-c2ccccc2CO[C@H]1CN(C)Cc1ccccc1 | 9.77 µM |
| COc1ccc2c3c(n(C)c2c1)[C@H](CO)N(C(C)=O)CC31CN(Cc2ccc(Cl)cc2)C1 | > 20 µM (inactive) |
| O=C(Nc1ccc(C(F)(F)F)cc1)N1C[C@@H]2N[C@H](C1)C2c1ccc(-c2ccccc2)cc1 (some centres undefined) | 8.09 µM |
| C[C@H](CO)N1C[C@H](C)[C@@H](CN(C)Cc2ccc(Oc3ccccc3)cc2)OCc2ccccc2-c2ccccc2C1=O | > 20 µM (inactive) |
| C[C@H](CO)N1C[C@H](C)[C@@H](CN(C)Cc2ccc(Oc3ccccc3)cc2)Oc2c(NC(=O)CCC(F)(F)F)cccc2C1=O | 6.84 µM |
| CCCNC(=O)N1[C@H](C#N)[C@H](c2ccc(C3=CCCCC3)cc2)[C@@H]1CO | > 20 µM (inactive) |
| CO[C@H]1CC(O[C@@H]2/C(C)=C/C[C@@H]3C[C@@H](C[C@]4(CC[C@H](C)[C@@H](C5CCCCC5)O4)O3)OC(=O)[C@@H]3C=C(C)/C(=N/O)[C@H]4OC/C(=C\C=C\[C@@H]2C)[C@]43O)O[C@@H](C)C1O (some centres undefined) | 9.15 µM |
| O=C(c1ccc(-c2ccc([N+](=O)[O-])cc2)o1)N1CCCC(C(F)(F)F)C1 (centres undefined) | > 20 µM (inactive) |
| Cc1c(CCOC(=O)CC23CC4CC(CC(C)(C4)C2)C3)sc[n+]1CC(=O)c1ccccc1 | 5.88 µM |
| Cc1cnc(NC(=O)c2ccccn2)s1 | 7.7 µM |
